The values that follow come from ChEMBL document CHEMBL3046700, “Identification of novel inhibitors of HIV-1 integrase using pharmacophore-based virtual screening combined with molecular docking strategies” (Med Chem Res, 2013).

The target in this test is Human immunodeficiency virus type 1 integrase (Human immunodeficiency virus 1, UniProt Q7ZJM1). The experiment in a line: Inhibition of Human immunodeficiency virus 1 integrase strand transfer activity using [32P]5'end-labeled linear 21 mer as substrate incubated for 30 min prior to substrate addition measured after 1 hr.
Sequence of Human immunodeficiency virus type 1 integrase (Q7ZJM1 whole entry): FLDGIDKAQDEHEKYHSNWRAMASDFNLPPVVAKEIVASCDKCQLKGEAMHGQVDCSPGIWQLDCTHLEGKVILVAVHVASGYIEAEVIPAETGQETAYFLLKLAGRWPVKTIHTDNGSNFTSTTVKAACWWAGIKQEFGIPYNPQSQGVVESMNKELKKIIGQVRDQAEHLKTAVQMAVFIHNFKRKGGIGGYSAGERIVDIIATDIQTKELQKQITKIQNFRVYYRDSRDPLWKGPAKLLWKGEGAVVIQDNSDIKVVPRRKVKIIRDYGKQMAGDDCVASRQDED
With `O=S(=O)(/C=C/c1ccc(O)c(O)c1O)CS(=O)(=O)/C=C/c1ccc(O)c(O)c1O`, the IC50 was determined as 0.9 µM.

With `CC(C)c1nc(C(=O)NCc2ccc(F)cc2)c(O)c(=O)n1C`, the IC50 came to 0.14 µM.

In the case of `Cc1cc(S(=O)(=O)Nc2nnc3c4scc(C)c4ncn23)c(S)cc1Cl`, the IC50 stood at 4.26 µM.

`Cc1cc2nc3nc(N)nc(NS(=O)(=O)c4cc(C)c(Cl)cc4S)n3c2cc1C` came in with a half-maximal inhibitory concentration (IC50) of 7.41 µM.

In the case of `O=C1NC(=S)SC1NS(=O)(=O)c1ccc(/N=N/c2ncccn2)cc1` (stereo not given), the IC50 is 14.1 µM. This IC50 lies about 1.9-fold higher than the previous one.

The compound `COc1ccc(C(=O)C2=NS(=O)(=O)c3cc(C)c(Cl)cc3S2)cc1` displayed an IC50 of 12 µM.

`Cc1cc2c(cc1Cl)SC(C(=O)c1ccc(F)cc1)=NS2(=O)=O` had an IC50 of 42 µM.

Compound `O=C(Oc1ccc(/C=C/S(=O)(=O)CS(=O)(=O)/C=C/c2ccc(OC(=O)c3ccccc3)c(OC(=O)c3ccccc3)c2)cc1OC(=O)c1ccccc1)c1ccccc1` gave a 50% inhibitory concentration (IC50) of 700 µM.

`NNS(=O)(=O)c1cccc(OCC(=O)O)c1` came in with a concentration for half-maximal inhibition (IC50) of 8.7 µM. Against the preceding compound, the IC50 is about 80-fold lower.

In turn, `Cc1ccc(-n2ncnc2-c2nc3ccccc3nc2NS(=O)(=O)c2cc(C(=O)Nc3ccccc3)c(Cl)cc2S)cc1` came in with an IC50 of 10 µM.
